Test system: D. suzukii
Experiment: Laboratory choice assays (double-choice ventilated arenas)
Type: in vivo, Drosophila suzukii
Conditions: vs flies selecting deionized water and flies not making any choice; 24 h; P<0.001
Protocol: Constant and uniform airflow was created within each of the containers using a vacuum at 1.5 L mid′ from the base and through the upper portion of each of the respective containers. Attraction to the matrix containing the ingredients of the exemplary insect control composition was verified in double-choice behavioral experiments. Arenas were prepared using 2-L transparent Griffin-style graduated low-form plastic beakers (Nalgene, Rochester, N.Y.). For each beaker, 9 ventilation holes (1 cm diameter) were cut along the circumference approximately 6 cm from the base. The holes were covered with fine white mesh in order to prevent D. suzukii individuals from escaping. The top of each beaker was drilled and connected to a 0.5 cm diameter plastic tube providing a vacuum in order to create a constant and uniform air flow (1.5 L min^−1) within the containers. Beakers were placed upside down on a flat work surface covered by white paper sheets. Two 25 mL plastic cups (Dart Container Corporation, Mason, Mich.) containing ˜10 mL of water and 5 g of arabinogalactan were placed at the base of each beaker. Both cups were covered with a wax film (Parafilm® M, Pechiney, Chicago, Ill.). 3 holes (˜0.3 cm diameter) were cut on the film coverings in order to allow the flies to enter the cups. […]

arabinogalactan
number of flies selecting deli cups containing arabinogalactan: significantly higher

Reference: patent publication US20210321627A1, “NON-PESTICIDAL ATTRACT AND KILL COMPOSITION FOR CONTROL OF INSECTS” (Oregon State University, priority 2018, published 2021)
